Key:
[1] = system: cultured human endothelial cells; settings: cited from earlier work
[2] = system: chick embryo chorioallantoic membranes (CAM); settings: cited from earlier work
phospholipase C (PLC) = settings: cited from earlier work
Smad3 mutant mice = test: Colorectal tumor development in Smad3 mutant mice given antibiotics in drinking water; assay type: in vivo
Procedure: I. Orally-delivered aminoglycosides reduce development of colon cancer in animal models predisposed to colon neoplasia. Smad3 mutant and APC/MIN mice are fed on a standard laboratory diet, with aminoglycoside antibiotics added to the water. […] Metronidazole was diluted in sterile drinking water to a final concentration of 0.5 mg/ml. The same concentrations are used for either combined or separate drug trials.
Smad3 mutant mice are maintained in 129Sv strain; APC/MIN mice are maintained in C57BL/6J. Both Smad3 mutant and APC/MIN mice are started on antibiotics at 5 weeks of age (range: 4-6 weeks). Mice are monitored and scored for survival and visible rectal tumors. Mice are sacrificed when showing severe distress (typically rectal prolapse with significant dehydration,. hypokinesis, cachexia). At sacrifice mice are dissected and their overall state assessed. Large intestines were harvested, opened longitudinally, and tumor number, location, and size recorded.

colorectal polyps = test: Double-blind, placebo-controlled study of colorectal polyps in patients with familial adenomatous polyposis; assay type: in vivo, human; settings: 1 or 2 g/day orally, after six months, change from base line
Procedure: II. […] All patients undergo endoscopy at the beginning and end of the study. The number and size of polyps is determined from photographs and videotapes; the response to treatment is expressed as the mean percent change from base line.

colorectal adenomas = test: Double-blind, placebo-controlled trial of colorectal adenomas in patients with previous colorectal cancer; assay type: in vivo, human; settings: daily use of 1 or 2 g, patients with a history of colorectal cancer
Description: III. Orally-delivered aminoglycosides reduce development of colorectal adenomas in patients with previous colorectal cancer. […] We determine the proportion of patients with adenomas, the number of recurrent adenomas, and the time to the development of adenoma between randomization and subsequent colonoscopic examinations. Relative risks are adjusted for age, sex, cancer stage, the number of colonoscopic examinations, and the time to first colonoscopy.

[3] = system: cultured angiogenin-secreting tumor cells; settings: injected, mice; cited from earlier work
[4] = system: azoxymethane (AOM) and 1,2-dimethyl hydrazine (DMH)-induced colon cancers; settings: AOM and DMH chemical carcinogenesis models; cited from earlier work

Compound: COc1ccc2c(c1)CC[C@@H]1[C@@H]2CC[C@]2(C)[C@@H](NCCCCCCN3C(=O)C=CC3=O)CC[C@@H]12 [U-73122]
- angiogenin-induced cell proliferation [1]: similarly inhibited angiogenin-induced cell proliferation and angiogenesis
- angiogenin-induced angiogenesis / anti-angiogenic activity [2]: similarly inhibited angiogenin-induced cell proliferation and angiogenesis
- PLC inhibition (phospholipase C (PLC)): PLC inhibitor

Compound: NCC[C@H](O)C(=O)N[C@@H]1C[C@H](N)[C@@H](O[C@H]2O[C@H](CN)[C@@H](O)[C@H](O)[C@H]2O)[C@H](O)[C@H]1O[C@H]1O[C@H](CO)[C@@H](O)[C@H](N)[C@H]1O [amikacin]
- angiogenin-induced angiogenesis / anti-angiogenic activity [2]: lack anti-angiogenic activity

Compound: Cc1ncc([N+](=O)[O-])n1CCO [metronidazole]
- tumor development compared with non-treated controls (Smad3 mutant mice; 0.5 mg/ml in drinking water): not significantly different from non-treated controls

Compound: NC[C@@H]1O[C@H](O[C@H]2[C@@H](O)[C@H](O[C@@H]3[C@@H](O)[C@H](N)C[C@H](N)[C@H]3O[C@H]3O[C@H](CO)[C@@H](O)[C@H](O)[C@H]3N)O[C@@H]2CO)[C@H](N)[C@@H](O)[C@@H]1O [paromomycin]
- reduction in the mean number of colorectal polyps (colorectal polyps): ~30%
- reduction in the polyp burden (the sum of polyp diameters) (colorectal polyps): ~30%
- occurrence of new colorectal adenomas (colorectal adenomas): decreases the occurrence of new colorectal adenomas
- angiogenin-induced angiogenesis / anti-angiogenic activity [2]: lack anti-angiogenic activity

Compound: [H]/N=C(/N)N[C@H]1[C@H](O)[C@@H](O)[C@H](O[C@@H]2O[C@@H](C)[C@](O)(C=O)[C@H]2O[C@@H]2O[C@@H](CO)[C@H](O)[C@@H](O)[C@@H]2NC)[C@@H](N/C(N)=N\[H])[C@@H]1O [streptomycin]
- angiogenin-induced angiogenesis / anti-angiogenic activity [2]: lack anti-angiogenic activity

Compound: gentamicin
- angiogenin-induced angiogenesis / anti-angiogenic activity [2]: lack anti-angiogenic activity

Compound: neomycin
- mice in which development of tumors was prevented (Smad3 mutant mice; oral treatment, at 24 weeks, 9 of 10 untreated mice developed colorectal tumors): 11 of 12
- reduction in the mean number of colorectal polyps (colorectal polyps): ~30%
- reduction in the polyp burden (the sum of polyp diameters) (colorectal polyps): ~30%
- occurrence of new colorectal adenomas (colorectal adenomas): decreases the occurrence of new colorectal adenomas
- angiogenin-induced cell proliferation [1]: able to reduce angiogenin-induced cell proliferation and angiogenesis
- angiogenin-induced angiogenesis / anti-angiogenic activity [2]: able to reduce angiogenin-induced cell proliferation and angiogenesis
- PLC inhibition (phospholipase C (PLC)): inhibits PLC
- growth of transplanted angiogenin-secreting tumor cells [3]: able to reduce growth
- incidence of colon adenocarcinomas [4]: may actually increase the incidence of colon adenocarcinomas

Source: US6846807B1, “Colorectal neoplasia prophylaxis” (Board of Regents, The University of Texas System, priority 2003, dated 2005)
